Laboratory results taken from ChEMBL document CHEMBL5214948, “Boronic Acid: A Novel Pharmacophore Targeting Src Homology 2 (SH2) Domain of STAT3” (J Med Chem, 2022).

Columns and labels:
MGC-803 = experiment: Antiproliferative activity against human MGC-803 cells assessed as reduction in cell viability measured after 72 hrs by CCK-8 assay; format: functional, cell-based; conditions: MGC-803, 72 h
AGS = experiment: Antiproliferative activity against human AGS cells assessed as reduction in cell viability incubated for 72 hrs by CCK-8 assay; format: functional, cell-based

## O=C([C@H]1CCCN1S(=O)(=O)c1c(F)c(F)c(F)c(F)c1F)N(Cc1ccc(C2CCCCC2)cc1)c1ccc(B(O)O)cc1
MGC-803
  IC50: 6.07 µM
AGS
  IC50: 2.78 µM
